# Experimental data taken from PMC5248655 (ACS chemical neuroscience, 2015).
# Counter-ions that a name gives are not always drawn. Like-named read-outs stand apart in the source and are kept apart here.
# Assays:
# [1] = test system: sandwich-cultured primary rat hepatocytes (SCHs); conditions: induction of LRP1 and P-gp; cited from earlier work
# [2] = test system: Sprague–Dawley male rats; experiment: Brain efflux index; conditions: 60 min after intracerebral microinjection
# [3] = test system: Sprague–Dawley male rats; conditions: n = 5; for hepatic uptake (extravascular extraction, E) of ^125I-Aβ40: absolute value
# [4] = test system: LRP1; experiment: Western blot of LRP1 expression in SCHs; format: cell-based, rat; conditions: 48 h treatment; for increase in LRP1 expression: n = 4
# [5] = test system: LRP1; experiment: Western blot of hepatic LRP1 expression in treated rats; format: in vivo, rat; conditions: 26 day treatment, n = 5
# [6] = test system: Sprague–Dawley male rats; experiment: TCA precipitation assay of Aβ degradation in treated rats; format: in vivo, rat; conditions: rats treated 26 days, data not shown
# [7] = test system: LRP1; experiment: Western blot of LRP1 expression in RBE4 cells; format: cell-based, rat; conditions: 5 µM, 48 h, normalized, vs control, n = 4
# [8] = test system: LRP1; conditions: 26 day treatment, Western blot, n = 5
# [9] = test system: P-gp; conditions: 26 day treatment, Western blot, n = 5
# [10] = test system: P-gp; experiment: Western blot of P-gp expression in SCHs; format: cell-based, rat; conditions: 48 h treatment, vs control cells, n = 4
# [11] = test system: Aβ42; conditions: rat, in vivo
# [12] = test system: P-gp; experiment: Western blot of hepatic P-gp expression in treated rats; format: in vivo, rat; conditions: 26 day treatment, n = 5
# [13] = test system: Aβ40; conditions: rat, in vivo
# [14] = test system: P-gp; experiment: Western blot of P-gp expression in RBE4 cells; format: cell-based, rat; conditions: 5 µM, 48 h, normalized, vs control, n = 4
# [15] = test system: C57BL/6 wild-type mice; conditions: compared to control mice; cited from earlier work
compound,measurement,setting,value
CO[C@H]1/C=C/O[C@@]2(C)Oc3c(C)c(O)c4c(O)c(c(/C=N/N5CCN(C)CC5)c(O)c4c3C2=O)NC(=O)/C(C)=C\C=C\[C@H](C)[C@H](O)[C@@H](C)[C@@H](O)[C@@H](C)[C@H](OC(C)=O)[C@@H]1C [rifampicin],effect on biliary clearance of ^125I-Aβ (in words),[1],significantly increased
^125I-Aβ40,^125I-Aβ40 BEI%,[2]; vehicle-treated aged rats (24 months),47%
same,^125I-Aβ40 BEI%,[2]; vehicle-treated young rats (4 months),59%
same,reduction of extravascular extraction (E) in aged compared to young rats,[3]; aged (24 months) vs young (4 months) rats,44%
same,extravascular extraction or hepatic uptake of ^125I-Aβ40,"[3]; vehicle-treated young rats, single pass into the portal vein, 18 s, mean ± SEM",51.9 ± 2.4%
"Nc1c2c(nc3ccccc13)CCCC2 [tacrine, Tacrine hydrochloride]",down-regulation of LRP1 expression,[4]; vs control cells,20%
CC12CC3CC(C)(C1)CC(N)(C3)C2 [memantine],effect on LRP1 expression (in words),[4],no effect
"CCN(C)C(=O)Oc1cccc([C@H](C)N(C)C)c1 [rivastigmine, rivastigmine L-tartrate]",increase in liver LRP1 expression,[5]; aged rats,88%
same,increase in liver LRP1 expression,[5]; young rats,41%
same,effect on Aβ degradation,[6],no effect
same,increase in LRP1 expression,[7],approximately 1.7 fold
same,increase in brain LRP1 protein expression,[8]; aged rats,56%
same,increase in brain LRP1 protein expression,[8]; young rats,42%
same,increase in brain P-gp protein expression,[9]; aged rats,20%
same,increase in brain P-gp protein expression,[9]; young rats,36%
same,"hepatic uptake (extravascular extraction, E) of ^125I-Aβ40","[3]; aged rats, 26 day treatment, mean ± SEM",64.0 ± 4.9%
same,increase in hepatic uptake of ^125I-Aβ40,"[3]; aged rats, 26 day treatment, vs vehicle-treated rats of the same age",119%
same,"hepatic uptake (extravascular extraction, E) of ^125I-Aβ40","[3]; young rats, 26 day treatment, mean ± SEM",64 ± 3.7%
same,increase in P-gp expression,[10],1.3 fold
same,reduction of total brain Aβ42 level,[11],approximately 52%
same,reduction trend in brain Aβ42 levels (in words),[11],not statistically significant
same,total Aβ42 level in brain,[11],466 ± 67 pmol/g brain tissue
same,increase in LRP1 expression,[4]; vs control cells,1.7 fold
same,increase in liver P-gp expression,[12]; aged rats,81%
same,increase in liver P-gp expression,[12]; young rats,47%
same,reduction of total brain Aβ40 level,[13],approximately 52%
same,total Aβ40 level in brain,[13],1713 ± 260 pmol/g brain tissue
same,increase in P-gp expression,[14],approximately 1.7 fold
"COc1ccc2c3c1O[C@H]1C[C@@H](O)C=C[C@@]31CCN(C)C2 [galantamine, Galantamine hydrochloride]",increase in P-gp expression,[10],1.3 fold
same,increase in LRP1 expression,[4]; vs control cells,1.2 fold
C/C=C(/C=O)[C@@H](CC=O)CC(=O)OCCc1ccc(O)cc1 [oleocanthal],increase in brain efflux of exogenously introduced Aβ40,[15],29%
